A short description of series [1]: Plasma protein binding (equilibrium dialysis), mouse plasma. It is filed as in vitro ADME, CD-1 mouse. Conditions: male, CD-1, pH 7.4. How it is done: Hepatocyte stability, plasma protein binding and cytochrome P450 assays were performed using standard procedures. Details can be found in Supplementary Methods. […]
reaction. Plates were incubated at 37°C and 50 µL aliquots were removed from the incubation mixture at 0, 10, 20, 40, 60 and 90 min and added to 2 volumes of methanol containing metoprolol (internal standard) to stop the reaction. Negative control incubations with inactivated cell l ysat e were incubat ed for 90 min. Positive controls were verapamil and umbelliferone. The termination plates were centrifuged at 2,500 rpm for 20 min at 4°C to precipitate the protein prior to LC -MS/MS analysis. In vitro h alf -life (t½) value was det ermined b y plotting the natural logarithm of the anal yte/ IS peak area ratios as a function of time, with the slope of the linear regression (k; - gradient) converted to in vitro t ½ v alue wher e t ½=0.693/k. […]
Plasma protein binding was assessed b y equilibrium dial ysis, utilizing the HT-dial ysis cell format with a cellulose semi- permeable membran e (molecular wei ght cut-off of 5000 Da).
(pH 7.4) and 100% mixed gender pooled human, pooled male CD -1 mouse or Sprague-Dawle y rat plasma. […] Samples were quantified using standard curves prepared in the equivalent matrix. The fraction unbound in plas ma (fu) was calculated us ing the followin g equ ation: […]
(In equilibrium dialysis free small molecules cross a membrane that holds back macromolecules.)

Series [2] deals with PABP1 and SmB methylation in U266B1 cells. Kind of series: Western blot of cellular methyl marks, U266B1. Conditions: 96 h. On the technique in general: Immunoblotting shows a protein as a band on a membrane.
Procedure: Methylation changes were measured at the well-characterized CARM1 substrates PABP1 and SmB[1],[10]. Changes in overall levels of asymmetric dimethyl arginine (aDMA) were assessed with an antibody that detects a generic aDMA motif. Levels of methylated analytes were quantified by densitometry and ratios of methylated to total protein were calculated to determine the cell biochemical IC50 values.
Cultured cells in linear/log phase growth were split to a seeding density of 2e5 cells/mL in 2–20mLs of media, depending on the yield required at the end of the growth period. Compound was diluted in DMSO and added to each culture vessel with a final DMSO concentration of 0.2%. Cells were allowed to grow for 96 hours. At the conclusion of each treatment period, cells were harvested by centrifugation (5 minutes, 1200 rpm), and cell pellets were rinsed once with PBS before being frozen on dry ice pending further processing.
Quantification of Western blots was performed using infra-red emitting secondary antibodies and detection with an ODYSSEY infrared imaging system.
The test system of series [3] is REC-1. The series is described as follows: Six-day cell proliferation assay (CellTiter-Glo). The format is cell-based. Conditions: Homo sapiens, Rec1, 144 h; REC-1 (B-NHL), 6 days; read-out: Average day 6 gIC50. The procedure: Six-day cell proliferation assay
Optimal cell seeding density was determined empirically for each cell lines by examining the gro wth of a wide ran ge o f seedin g densities in a 3 84-well formatto identify conditio ns that permitted maximal and continued proliferation for 6 days. Cells were plat ed in duplicate plates 24 hours before treatment with a 20- point two-fold dilution series of compound or 0.15%
DMSO. Plates were incubated for 6 da ys at 37°C in 5% CO2. Cells were th en l ysed with CellTiter-Glo (CTG) (Pr omega) and chemiluminescent sign al was detected with an appropriat e microplate reader. In addition, an untreated plate of cells was harvested at the time of compound addition (T0) to quantif y the initial cell densit y. CTG values obtained after 6 days of treatment were expressed as a percent of the T0 value and plotted against compound concentration. […]
Supplementary Table S 3. […] A p anel […]
of cell lines was treated with EZM2302fo r 6da ys in a proliferation ass a y. Cell densit y (as assessed b y CellTiter-Gl o) at da y 0 was compared to day 6 to det ermine growth IC 50 values , calculated us i n g a f our parameter dose response equation.
Cell Type According to Cell Type Category Cell L ine Name gIC50 Average day 6 Standard Replicates
Supplier Modifier gIC50 (nM) Deviation
For orientation: ATP-based viability assays read luminescence as a measure of living cells.

For series [4], the target named is hERG channel (Homo sapiens, UniProt Q12809). The series is described as follows: hERG channel current inhibition. Conditions: read-out: IC50 against hERG channel current inhibition. The format is biochemical.
hERG channel, sequence (Q12809 whole entry): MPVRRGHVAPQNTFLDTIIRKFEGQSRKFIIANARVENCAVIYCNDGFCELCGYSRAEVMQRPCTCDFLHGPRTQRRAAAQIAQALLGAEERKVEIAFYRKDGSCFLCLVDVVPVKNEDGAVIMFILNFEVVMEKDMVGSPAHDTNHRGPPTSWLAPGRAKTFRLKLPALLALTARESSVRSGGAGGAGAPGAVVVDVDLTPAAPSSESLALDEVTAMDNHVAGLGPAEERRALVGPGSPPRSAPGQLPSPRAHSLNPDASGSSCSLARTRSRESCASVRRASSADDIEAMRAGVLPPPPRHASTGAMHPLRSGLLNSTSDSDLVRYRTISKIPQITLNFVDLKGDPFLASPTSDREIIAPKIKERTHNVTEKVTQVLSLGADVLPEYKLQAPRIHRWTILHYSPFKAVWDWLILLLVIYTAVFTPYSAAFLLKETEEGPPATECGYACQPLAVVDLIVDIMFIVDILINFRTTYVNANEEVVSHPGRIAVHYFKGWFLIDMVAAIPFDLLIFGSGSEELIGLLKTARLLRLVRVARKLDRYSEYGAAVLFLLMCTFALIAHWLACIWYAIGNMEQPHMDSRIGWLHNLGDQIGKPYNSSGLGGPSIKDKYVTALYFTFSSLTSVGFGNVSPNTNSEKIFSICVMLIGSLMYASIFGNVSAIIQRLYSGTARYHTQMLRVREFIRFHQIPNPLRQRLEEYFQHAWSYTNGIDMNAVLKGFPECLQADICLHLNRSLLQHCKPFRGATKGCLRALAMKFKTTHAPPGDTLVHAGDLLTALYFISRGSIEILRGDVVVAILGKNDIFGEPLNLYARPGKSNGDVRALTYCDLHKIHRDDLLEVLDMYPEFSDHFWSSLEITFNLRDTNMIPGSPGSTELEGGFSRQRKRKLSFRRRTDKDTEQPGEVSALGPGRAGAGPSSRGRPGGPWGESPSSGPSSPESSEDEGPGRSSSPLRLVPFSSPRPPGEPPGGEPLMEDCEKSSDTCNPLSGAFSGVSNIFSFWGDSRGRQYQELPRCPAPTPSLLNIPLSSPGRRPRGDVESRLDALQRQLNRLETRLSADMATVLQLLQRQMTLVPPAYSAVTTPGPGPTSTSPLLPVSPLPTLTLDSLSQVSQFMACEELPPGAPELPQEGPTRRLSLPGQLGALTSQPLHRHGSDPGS

Read-outs that look alike come from different tables or passages of the source.

The values below come from paper PMC5740082, “Identification of a CARM1 Inhibitor with Potent In Vitro and In Vivo Activity in Preclinical Models of Multiple Myeloma” (Scientific Reports, 2017).

On to `CNC[C@@H](O)COc1ccc(Cl)c(-c2nc(-c3c(C)noc3C)c(C)c(N3CC4(CCN(C(=O)OC)CC4)C3)n2)c1` [EZM2302], for which the fraction unbound at 16 h, 5 µM in series [1] was found to be 0.46. Moreover, the IC50 in series [2] (read-out: IC50, PABP1me2a) was 22 nM; in series [2] (read-out: IC50, SmBme0), 20 nM; in series [3] it was above 7330 nM; in series [4], above 100000 nM.

The term fraction unbound denotes the share of the substance not bound to proteins or other matrix. Lower therefore signals little free substance.
